The record followed here is US10947389B2, “Composition, film, near infrared cut filter, laminate, pattern forming method, solid image pickup element, image display device, infrared sensor, and color filter” (FUJIFILM Corporation, priority 2016, dated 2021).

Each structure is given as a SMILES string.

The nature of data set [1]: Evaluation of absorption maximum and absorbance ratio (500 nm/λmax) in solution. Type of data set: physicochemical. The following applies: for Absorbance Ratio (500 nm/λmax) / Absorption Maximum (nm): solvent chloroform; for λmax (nm) of Second Near Infrared Absorbing Compound: as listed in Table 58. From the text: In this specification, “having an absorption maximum in a wavelength range of 650 to 1000 nm” denotes having a maximum absorbance in a wavelength range of 650 to 1000 nm in an absorption spectrum of the near infrared absorbing compound in a solution. Examples of a measurement solvent used for the measurement of the absorption spectra of the near infrared absorbing compound in the solution include chloroform, methanol, dimethyl sulfoxide, ethyl acetate, and tetrahydrofuran. In the case of a compound which is soluble in chloroform, chloroform is used as the measurement solvent. In the case of a compound which is not soluble in chloroform, methanol is used. In addition, In the case of a compound which is not soluble in chloroform and methanol, dimethyl sulfoxide is used.
Each of the compounds was dissolved in a measurement solvent shown in the following tables (concentration: 2.5×10^−6 mol/L) to measure an absorption spectrum (optical path length: 10 mm).
In addition, an absorbance ratio (500 nm/λmax) as a value obtained by dividing an absorbance at a wavelength of 500 nm by an absorbance at an absorption maximum was evaluated based on the following criteria.
A: the absorbance ratio (500 nm/λmax) was 0.04 or lower
B: the absorbance ratio (500 nm/λmax) was higher 0.04 and 0.08 or lower
C: the absorbance ratio (500 nm/λmax) was higher than 0.08

The nature of data set [2]: Evaluation of solubility in water at 23° C. Type of data set: physicochemical. Conditions: stirred for 1 hour. As for the experimental part:
Each of the compounds was added to water at 23° C. under the atmospheric pressure, the components were stirred for 1 hour, and the solubility of the compound in water was obtained. The solubility of the compound was evaluated based on the following criteria.
A: the solubility in water at 23° C. was 0.1 mass % or lower
B: the solubility in water at 23° C. was higher than 0.1 mass % and 1 mass % or lower
C: the solubility in water at 23° C. was higher than 1 mass %

For the molecule `CCCCC(CC)CC(=O)NC1=CC(=[N+](c2ccc(C)cc2)c2ccc(C)cc2)C=C/C1=C1\C(=O)C(c2ccc(N(c3ccc(C)cc3)c3ccc(C)cc3)cc2NC(=O)CC(CC)CCCC)=C1[O-]` (centres unmarked) [Compound Q-3], in data set [1], the “Absorbance Ratio (500 nm/λmax)” value is recorded as “A (the absorbance ratio (500 nm/λmax) was 0.04 or lower)” and the “Absorption Maximum (nm)” value is 737 nm. The Solubility entry in data set [2] is “A (the solubility in water at 23 °C was 0.1 mass % or lower)”.

Regarding `CCCCC(CC)CC(=O)Nc1cc2c(cc1C1=C([O-])/C(=c3/cc4c(cc3NC(=O)CC(CC)CCCC)=[N+](C)C(C)C4(C)C)C1=O)C(C)(C)C(C)N2C` (centres unmarked) [Compound Q-36], in data set [1], the “λmax (nm) of Second Near Infrared Absorbing Compound” value was determined as 704 nm, the “Absorbance Ratio (500 nm/λmax)” value is on record as “A (the absorbance ratio (500 nm/λmax) was 0.04 or lower)” and the “Absorption Maximum (nm)” value is reported as 704 nm. In data set [2], the Solubility entry is “A (the solubility in water at 23 °C was 0.1 mass % or lower)”.

As to `CCCCC(CC)COc1ccc(B2N=c3/c(=C4/C(=O)C(c5ccc6cccc7c6c5NB(c5ccc(OCC(CC)CCCC)cc5)N7)=C4O)ccc4cccc(c34)N2)cc1` (centres unmarked) [Compound Q-39], in data set [1], the “Absorbance Ratio (500 nm/λmax)” value is given as “A (the absorbance ratio (500 nm/λmax) was 0.04 or lower)” and the “Absorption Maximum (nm)” value came to 822 nm. Besides, the Solubility result in data set [2] is “A (the solubility in water at 23 °C was 0.1 mass % or lower)”.

Take `CCCCN1/C(=C/C2=C([O-])C(=C/c3sc4c5ccccc5ccc4[n+]3CCCC)/C2=O)Sc2c1ccc1ccccc21` [Compound Q-54]: in data set [1], the “Absorbance Ratio (500 nm/λmax)” value was “A (the absorbance ratio (500 nm/λmax) was 0.04 or lower)” and the “Absorption Maximum (nm)” value came to 698 nm. The Solubility entry in data set [2] was “A (the solubility in water at 23 °C was 0.1 mass % or lower)”.

Consider `CC(CCC(COc1ccc(-c2c3/c(=C(\C#N)c4cnc5cc(Cl)c(Cl)cc5n4)n(B(c4ccccc4)c4ccccc4)c(-c4ccc(O)cc4)c3/c(=C(\C#N)c3cnc4cc(Cl)c(Cl)cc4n3)n2B(c2ccccc2)c2ccccc2)cc1)C(C)CC(C)(C)C)CC(C)(C)C` (centres unmarked) [Compound V-42], for which, in data set [1], the “Absorbance Ratio (500 nm/λmax)” value is given as “A (the absorbance ratio (500 nm/λmax) was 0.04 or lower)” and the “Absorption Maximum (nm)” value was found to be 885 nm. The Solubility entry in data set [2] is “A (the solubility in water at 23 °C was 0.1 mass % or lower)”.

As for `CC(C)CCCCCCCC(CCCCCC(C)C)COc1ccc(-c2c3c(=C(C#N)c4nc5ccccc5o4)n(B(c4ccccc4)c4ccccc4)c(-c4ccc(OCC(CCCCCCCC(C)C)CCCCCC(C)C)cc4)c3c(=C(C#N)c3nc4ccccc4o3)n2B(c2ccccc2)c2ccccc2)cc1` (centres unmarked) [II-9], in data set [1], the “Absorbance Ratio (500 nm/λmax)” value is listed as “A (the absorbance ratio (500 nm/λmax) was 0.04 or lower)” and the “Absorption Maximum (nm)” value is 740 nm. Besides, in data set [2], the Solubility entry is “A (the solubility in water at 23 °C was 0.1 mass % or lower)”.

For the molecule `CC(CCC(COc1ccc(-c2c3c(=C(C#N)c4nc5ccccc5o4)n(B(c4ccccc4)c4ccccc4)c(-c4ccc(OCC(CCC(C)CC(C)(C)C)C(C)CC(C)(C)C)cc4)c3c(=C(C#N)c3nc4ccccc4o3)n2B(c2ccccc2)c2ccccc2)cc1)C(C)CC(C)(C)C)CC(C)(C)C` (centres unmarked) [II-10], in data set [1], the “Absorbance Ratio (500 nm/λmax)” value is given as “A (the absorbance ratio (500 nm/λmax) was 0.04 or lower)” and the “Absorption Maximum (nm)” value came out at 740 nm. Further, the Solubility entry in data set [2] is “A (the solubility in water at 23 °C was 0.1 mass % or lower)”.

As for `CC(C)CCCCCCCC(CCCCCC(C)C)COc1cccc(-c2c3c(=C(C#N)c4nc5ccccc5o4)n(B(c4ccccc4)c4ccccc4)c(-c4cccc(OCC(CCCCCCCC(C)C)CCCCCC(C)C)c4)c3c(=C(C#N)c3nc4ccccc4o3)n2B(c2ccccc2)c2ccccc2)c1` (centres unmarked) [II-27], in data set [1], the “λmax (nm) of Second Near Infrared Absorbing Compound” value was 743 nm, the “Absorbance Ratio (500 nm/λmax)” value is “A (the absorbance ratio (500 nm/λmax) was 0.04 or lower)” and the “Absorption Maximum (nm)” value is 743 nm. Further, the Solubility entry in data set [2] is “A (the solubility in water at 23 °C was 0.1 mass % or lower)”.

Consider `CCCCCCCCCCC(CCCCCCCC)COc1cccc(-c2c3/c(=C(\C#N)c4nc5ccccc5o4)n(B(c4ccccc4)c4ccccc4)c(-c4cccc(OCC(CCCCCCCC)CCCCCCCCCC)c4)c3/c(=C(\C#N)c3nc4ccccc4o3)n2B(c2ccccc2)c2ccccc2)c1` (centres unmarked) [II-29], for which, in data set [1], the “λmax (nm) of Second Near Infrared Absorbing Compound” value came to 743 nm, the “Absorbance Ratio (500 nm/λmax)” value was “A (the absorbance ratio (500 nm/λmax) was 0.04 or lower)” and the “Absorption Maximum (nm)” value was found to be 743 nm. Besides, the Solubility result in data set [2] is “A (the solubility in water at 23 °C was 0.1 mass % or lower)”.

Turning to `Cc1ccccc1B(c1ccccc1C)n1c(-c2ccc(OCC(CCCCCCCC(C)C)CCCCCC(C)C)cc2)c2c(=C(C#N)c3nc4ccccc4o3)n(B(c3ccccc3C)c3ccccc3C)c(-c3ccc(OCC(CCCCCCCC(C)C)CCCCCC(C)C)cc3)c2c1=C(C#N)c1nc2ccccc2o1` (centres unmarked) [II-43], in data set [1], the “Absorbance Ratio (500 nm/λmax)” value is listed as “A (the absorbance ratio (500 nm/λmax) was 0.04 or lower)” and the “Absorption Maximum (nm)” value was 732 nm. In addition, in data set [2], the Solubility result was “A (the solubility in water at 23 °C was 0.1 mass % or lower)”.

In the case of `Cc1ccccc1B(c1ccccc1C)n1c(-c2ccc(OCC(CCC(C)CC(C)(C)C)C(C)CC(C)(C)C)cc2)c2/c(=C(\C#N)c3nc4ccccc4o3)n(B(c3ccccc3C)c3ccccc3C)c(-c3ccc(OCC(CCC(C)CC(C)(C)C)C(C)CC(C)(C)C)cc3)c2/c1=C(\C#N)c1nc2ccccc2o1` (centres unmarked) [II-44], in data set [1], the “Absorbance Ratio (500 nm/λmax)” value is given as “A (the absorbance ratio (500 nm/λmax) was 0.04 or lower)” and the “Absorption Maximum (nm)” value amounted to 732 nm. The Solubility entry in data set [2] was “A (the solubility in water at 23 °C was 0.1 mass % or lower)”.

For `CC(C)CCCCCCCC(CCCCCC(C)C)COc1cccc(-c2c3c(=C(C#N)c4nc5ccccc5o4)n(B4Oc5ccccc5O4)c(-c4cccc(OCC(CCCCCCCC(C)C)CCCCCC(C)C)c4)c3c(=C(C#N)c3nc4ccccc4o3)n2B2Oc3ccccc3O2)c1` (centres unmarked) [II-91], in data set [1], the “λmax (nm) of Second Near Infrared Absorbing Compound” value is 679 nm, the “Absorbance Ratio (500 nm/λmax)” value is reported as “A (the absorbance ratio (500 nm/λmax) was 0.04 or lower)” and the “Absorption Maximum (nm)” value is 679 nm. In data set [2], the Solubility entry is “A (the solubility in water at 23 °C was 0.1 mass % or lower)”.

In the case of `Cc1ccc2oc(C(C#N)=c3c4c(-c5ccc(OCC(CCCCCCCC(C)C)CCCCCC(C)C)cc5)n(B(c5ccccc5)c5ccccc5)c(=C(C#N)c5nc6cc(C)ccc6o5)c4c(-c4ccc(OCC(CCCCCCCC(C)C)CCCCCC(C)C)cc4)n3B(c3ccccc3)c3ccccc3)nc2c1` (centres unmarked) [II-167], in data set [1], the “Absorbance Ratio (500 nm/λmax)” value is on record as “A (the absorbance ratio (500 nm/λmax) was 0.04 or lower)” and the “Absorption Maximum (nm)” value stood at 745 nm. The Solubility result in data set [2] is “A (the solubility in water at 23 °C was 0.1 mass % or lower)”.

With `Cc1ccc2oc(C(C#N)=c3c4c(-c5ccc(OCC(CCC(C)CC(C)(C)C)C(C)CC(C)(C)C)cc5)n(B(c5ccccc5)c5ccccc5)c(=C(C#N)c5nc6cc(C)ccc6o5)c4c(-c4ccc(OCC(CCC(C)CC(C)(C)C)C(C)CC(C)(C)C)cc4)n3B(c3ccccc3)c3ccccc3)nc2c1` (centres unmarked) [II-168], in data set [1], the “Absorbance Ratio (500 nm/λmax)” value is reported as “A (the absorbance ratio (500 nm/λmax) was 0.04 or lower)” and the “Absorption Maximum (nm)” value turned out to be 745 nm. The Solubility result in data set [2] is “A (the solubility in water at 23 °C was 0.1 mass % or lower)”.

As to `Cc1ccc2oc(/C(C#N)=c3/c4c(-c5ccc(O)cc5)n(B(c5ccccc5)c5ccccc5)/c(=C(/C#N)c5nc6cc(C)ccc6o5)c4c(-c4ccc(O)cc4)n3B(c3ccccc3)c3ccccc3)nc2c1` [II-184], in data set [1], the “Absorbance Ratio (500 nm/λmax)” value is recorded as “A (the absorbance ratio (500 nm/λmax) was 0.04 or lower)” and the “Absorption Maximum (nm)” value was found to be 749 nm. Further, in data set [2], the Solubility entry is “A (the solubility in water at 23 °C was 0.1 mass % or lower)”.

As for `Cc1ccc2oc(C(C#N)=c3c4c(-c5cccc(OCC(CCCCCCCC(C)C)CCCCCC(C)C)c5)n(B(c5ccccc5)c5ccccc5)c(=C(C#N)c5nc6cc(C)ccc6o5)c4c(-c4cccc(OCC(CCCCCCCC(C)C)CCCCCC(C)C)c4)n3B(c3ccccc3)c3ccccc3)nc2c1` (centres unmarked) [II-185], in data set [1], the “Absorbance Ratio (500 nm/λmax)” value is listed as “A (the absorbance ratio (500 nm/λmax) was 0.04 or lower)” and the “Absorption Maximum (nm)” value turned out to be 748 nm. The Solubility result in data set [2] is “A (the solubility in water at 23 °C was 0.1 mass % or lower)”.

Consider `Cc1ccc2oc(/C(C#N)=c3/c4c(-c5cccc(OCC(CCC(C)CC(C)(C)C)C(C)CC(C)(C)C)c5)n(B(c5ccccc5)c5ccccc5)/c(=C(/C#N)c5nc6cc(C)ccc6o5)c4c(-c4cccc(OCC(CCC(C)CC(C)(C)C)C(C)CC(C)(C)C)c4)n3B(c3ccccc3)c3ccccc3)nc2c1` (centres unmarked) [II-186], for which the “Second Near Infrared Absorbing Compound λmax (nm)” value in data set [1] (absorption maximum of the second near infrared absorbing compound) worked out at 743 nm. Further, in data set [1], the “Absorbance Ratio (500 nm/λmax)” value is given as “A (the absorbance ratio (500 nm/λmax) was 0.04 or lower)” and the “Absorption Maximum (nm)” value is reported as 748 nm. The Solubility entry in data set [2] was “A (the solubility in water at 23 °C was 0.1 mass % or lower)”.
